2 compounds from publication PMC9504648 (Marine Drugs, 2022) can be followed below.

Assay [1] addresses T1, NMDA receptor (NMDAR; GluN2B-containing) (Mus musculus, UniProt P35438+Q01097).
T1 construct: gene Grin2b; native receptor in DIV 10–12 cerebrocortical neurons; with GluN1
Briefly: Fluo-3 NMDA-induced Ca2+ influx in primary neurons, single concentration ([…], […] reduction in AUC). It counts as cell-based.

Assay [2] addresses T1, NMDA receptor (NMDAR; GluN2B-containing). Briefly: Fluo-3 Ca2+ influx in primary neurons; […] inhibits NMDA response ([…] AUC); IC50 is against PbTx-2-induced influx. The class given is cell-based.

T1 sequence (Q01097 27-1482, other chains not shown): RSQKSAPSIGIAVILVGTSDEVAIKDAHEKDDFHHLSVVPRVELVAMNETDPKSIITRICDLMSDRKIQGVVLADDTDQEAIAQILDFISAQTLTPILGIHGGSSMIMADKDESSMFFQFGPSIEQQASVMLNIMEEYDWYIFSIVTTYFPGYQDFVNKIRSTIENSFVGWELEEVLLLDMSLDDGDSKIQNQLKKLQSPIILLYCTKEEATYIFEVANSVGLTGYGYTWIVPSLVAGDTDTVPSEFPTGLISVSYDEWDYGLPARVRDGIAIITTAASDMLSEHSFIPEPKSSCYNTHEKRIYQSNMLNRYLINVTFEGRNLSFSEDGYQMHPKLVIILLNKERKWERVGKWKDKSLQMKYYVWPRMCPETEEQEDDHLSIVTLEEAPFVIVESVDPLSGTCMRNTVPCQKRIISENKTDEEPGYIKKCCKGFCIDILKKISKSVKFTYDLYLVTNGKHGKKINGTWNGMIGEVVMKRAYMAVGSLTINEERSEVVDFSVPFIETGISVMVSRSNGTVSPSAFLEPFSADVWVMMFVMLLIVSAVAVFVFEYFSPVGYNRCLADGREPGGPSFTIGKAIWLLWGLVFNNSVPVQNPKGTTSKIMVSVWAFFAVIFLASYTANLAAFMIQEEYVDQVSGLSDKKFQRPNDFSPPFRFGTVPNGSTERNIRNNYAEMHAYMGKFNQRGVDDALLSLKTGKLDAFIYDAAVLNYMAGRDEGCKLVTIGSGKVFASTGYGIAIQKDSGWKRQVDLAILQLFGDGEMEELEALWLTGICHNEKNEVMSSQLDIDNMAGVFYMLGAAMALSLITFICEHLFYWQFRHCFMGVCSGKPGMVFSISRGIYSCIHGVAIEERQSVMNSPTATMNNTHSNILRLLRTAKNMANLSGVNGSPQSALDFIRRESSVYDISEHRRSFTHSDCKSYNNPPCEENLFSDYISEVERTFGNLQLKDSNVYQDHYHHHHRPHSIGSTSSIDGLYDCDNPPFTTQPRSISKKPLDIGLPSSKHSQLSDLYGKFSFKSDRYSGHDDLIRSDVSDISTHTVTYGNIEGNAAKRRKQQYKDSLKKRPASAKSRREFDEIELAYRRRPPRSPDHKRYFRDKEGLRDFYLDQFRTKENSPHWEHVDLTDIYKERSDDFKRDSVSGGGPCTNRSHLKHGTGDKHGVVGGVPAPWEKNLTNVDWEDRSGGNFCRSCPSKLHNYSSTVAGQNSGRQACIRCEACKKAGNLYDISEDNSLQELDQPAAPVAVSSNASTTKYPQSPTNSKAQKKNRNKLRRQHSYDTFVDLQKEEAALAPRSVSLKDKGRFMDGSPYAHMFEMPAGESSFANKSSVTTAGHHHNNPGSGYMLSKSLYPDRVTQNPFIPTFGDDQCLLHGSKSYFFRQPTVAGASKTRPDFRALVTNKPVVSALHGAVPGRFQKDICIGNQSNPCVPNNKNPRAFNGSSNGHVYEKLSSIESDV

As usually defined, the inhibition is the relative decrease from the control value, in per cent. In turn, `C[C@]12N[C@H](Cc3ccccc31)c1ccccc12` [MK-801] yielded an inhibition at 1 µM in assay [1] of 75%.

As usually defined, the IC50 is the midpoint of a concentration-inhibition curve. A higher IC50 goes with a need for much substance. In assay [2], `CC(C(O)c1ccc(O)cc1)N1CCC(Cc2ccccc2)CC1` (centres unmarked) [ifenprodil] returned an IC50 of 2200 nM.
